The source of these data is US8557839B2, “Fused ring azadecalin glucocorticoid receptor modulators” (Corcept Therapeutics, Inc., priority 2004, dated 2013).

The target in assay [1] is T1, glucocorticoid receptors (Homo sapiens, UniProt P04150).
T1 sequence (P04150 1-777): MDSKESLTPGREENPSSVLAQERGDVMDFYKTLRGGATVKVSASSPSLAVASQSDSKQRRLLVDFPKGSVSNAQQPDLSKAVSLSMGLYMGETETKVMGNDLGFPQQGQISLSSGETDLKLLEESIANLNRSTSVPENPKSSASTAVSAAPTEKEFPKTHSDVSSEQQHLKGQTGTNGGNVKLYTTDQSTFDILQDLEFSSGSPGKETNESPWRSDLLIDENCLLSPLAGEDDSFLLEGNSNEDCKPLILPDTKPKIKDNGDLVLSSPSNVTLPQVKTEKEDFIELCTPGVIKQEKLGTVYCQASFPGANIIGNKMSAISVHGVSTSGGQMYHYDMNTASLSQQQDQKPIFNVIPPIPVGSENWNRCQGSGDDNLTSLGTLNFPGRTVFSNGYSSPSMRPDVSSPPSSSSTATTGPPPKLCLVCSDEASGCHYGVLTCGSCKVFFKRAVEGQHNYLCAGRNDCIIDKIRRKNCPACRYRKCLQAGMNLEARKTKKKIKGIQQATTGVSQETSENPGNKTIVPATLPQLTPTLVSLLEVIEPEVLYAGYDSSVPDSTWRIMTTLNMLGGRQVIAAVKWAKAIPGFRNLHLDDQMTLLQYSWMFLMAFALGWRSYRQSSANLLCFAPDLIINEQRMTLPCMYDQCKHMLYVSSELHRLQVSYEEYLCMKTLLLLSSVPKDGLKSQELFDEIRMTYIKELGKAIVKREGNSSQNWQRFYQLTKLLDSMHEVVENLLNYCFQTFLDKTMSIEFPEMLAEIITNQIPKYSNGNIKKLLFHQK
The experiment in a line: Glucocorticoid receptor binding displacement assay with 3H-dexamethasone. Also on record: This GR was a full-length steroid hormone receptor; host or cells: recombinant baculovirus-infected insect cells. The settings on record: Ki from IC50 by Cheng-Prusoff; 2.5 nM 3H-dexamethasone; read-out: GR Binding. The method, then:
The source of the receptor was recombinant baculovirus-infected insect cells. This GR was a full-length steroid hormone receptor likely to be associated with heat-shock and other endogenous proteins.
For the Primary Screen, test compounds were tested at 1 μM in duplicate. These compounds were diluted from 10 mM stock in 100% DMSO. After dilution to 100 μM, 5 μl were added to 245 μl assay buffer to obtained 2 μM compound and 2% DMSO.
For the IC50 determinations, test compounds were tested at 6 concentrations in duplicate (concentration range depends on % inhibition binding that was obtained in the Primary Screen). Test compounds were diluted from 10 mM stock in 100% DMSO. The tested solutions were prepared at 2× final assay concentration in 2% DMSO/assay buffer.
All reagents and the assay plate were kept on ice during the addition of reagents. […] After the additions, the incubation mixture was mixed and incubated for 2.5 hrs at 4° C.
After 2.5 hrs incubation, unbound counts were removed with dextran coated charcoal (DCC) as follows: 25 μl of DCC solution (10% DCC in assay buffer) was added to all wells and mixed (total volume 225 μl). The plate was centrifuged at 4000 rpm for 10 minutes at 4° C. 75 μl of the supernatants (i.e.⅓ of total volume) was carefully pipetted into an optiplate. 200 μl of scintillation cocktail were added (Microscint-40, Packard Bioscience. B.V.). The plate was vigorously shaken for approx. 10 minutes and counted on Topcount.
The IC50 values were converted to Ki (the inhibition constant) using the Cheng-Prusoff equation.
Reagents: Assay buffer: 10 mM potassium phosphate buffer pH 7.6 containing 5 mM DTT, 10 mM sodium molybdate, 100 μM EDTA and 0.1% BSA.

The target of assay [2] is T1, glucocorticoid receptors. The experiment in a line: GR functional assay using SW1353/MMTV-5 cells (dexamethasone-induced luciferase). Type of assay: cell-based. Also on record: contains endogenous glucocorticoid receptors; endogenous in cells; host or cells: SW1353/MMTV-5 (human chondrosarcoma, stably carrying the pMAMneo-Luc reporter). To be noted: read-out: GR Functional. The method, then: SW1353/MMTV-5 is an adherent human chondrosarcoma cell line that contains endogenous glucocorticoid receptors. It was transfected with a plasmid (pMAMneo-Luc) encoding firefly luciferase located behind a glucocorticoid-responsive element (GRE) derived from a viral promoter (long terminal repeat of mouse mammary tumor virus). A stable cell line SW1353/MMTV-5 was selected with geneticin, which was required to maintain this plasmid.
SW1353/MMTV-5 cells were distributed in 96-well plates and incubated in medium (without geneticin) for 24 hrs (in the absence of CO2).

As to `N#Cc1ccc(S(=O)(=O)N2CCC3=Cc4c(cnn4-c4ccc(F)cc4)C[C@]3(CN3CCOCC3)C2)cc1`, the values for the Ki in assay [1] and in assay [2] were under 0.01 µM and over 0.1 µM, respectively.

Turning to `CCN(CC)C[C@]12Cc3cnn(-c4ccc(F)cc4)c3C=C1CCN(S(=O)(=O)c1ccccc1)C2`, the Ki in assay [1] is under 0.01 µM; in assay [2], 0.01 to 0.1 µM.

For the compound `CCN(CC)C[C@]12Cc3cnn(-c4ccc(F)cc4)c3C=C1CCN(S(=O)(=O)c1ccc(OC)cc1)C2`, the figures for the Ki in assay [1] and in assay [2] were under 0.01 µM and 0.01 to 0.1 µM, respectively.

As for `COc1ccc(S(=O)(=O)N2CCC3=Cc4c(cnn4-c4ccc(F)cc4)C[C@]3(CN3CCCCC3)C2)cc1`, the Ki in assay [1] and in assay [2] was 0.01 to 0.1 µM throughout.

Consider `CC(C)(C)c1ccc(S(=O)(=O)N2CCC3=Cc4c(cnn4CC(F)(F)F)C[C@]3(CN3CCCC3)C2)cc1`, for which the Ki in assay [1] is 0.01 to 0.1 µM; in assay [2], over 0.1 µM.

With `CCCCn1ncc2c1C=C1CCN(S(=O)(=O)c3ccc(C(C)(C)C)cc3)C[C@@]1(CN(C)C)C2`, the Ki was 0.01 to 0.1 µM in assay [1] and over 0.1 µM in assay [2].

On to `CCCCn1ncc2c1C=C1CCN(S(=O)(=O)c3ccc(C(C)(C)C)cc3)C[C@@]1(CN1CCCCC1)C2`, for which the Ki in assay [1] was under 0.01 µM; in assay [2], 0.01 to 0.1 µM.

For the compound `CC(C)n1ncc2c1C=C1CCN(S(=O)(=O)c3ccc(C(C)(C)C)cc3)C[C@@]1(CN(C)C)C2`, the Ki is 0.01 to 0.1 µM in assay [1] and over 0.1 µM in assay [2].

Consider `CC(C)n1ncc2c1C=C1CCN(S(=O)(=O)c3ccc(C(C)(C)C)cc3)C[C@@]1(CN1CCCCC1)C2`, for which the Ki in assay [1] is under 0.01 µM; in assay [2] it was 0.01 to 0.1 µM.

For the compound `Cc1ccccc1S(=O)(=O)N1CCC2=Cc3c(cnn3-c3ccc(F)cc3)C[C@]2(CN2CCOCC2)C1`, the values for the Ki in assay [1] and in assay [2] were under 0.01 µM and 0.01 to 0.1 µM, respectively.

Turning to `O=S(=O)(c1ccccc1F)N1CCC2=Cc3c(cnn3-c3ccc(F)cc3)C[C@]2(CN2CCOCC2)C1`, the Ki is under 0.01 µM in assay [1] and 0.01 to 0.1 µM in assay [2].

With `CC(C)(C)c1ccc(S(=O)(=O)N2CC[C@H]3Cc4c(cnn4-c4ccc(F)cc4)C[C@]3(CO)C2)cc1`, the Ki in assay [1] and in assay [2] was over 0.1 µM each time.

Regarding `COC[C@]12Cc3cnn(-c4ccc(F)cc4)c3C[C@@H]1CCN(S(=O)(=O)c1ccc(C(C)(C)C)cc1)C2`, the Ki in assay [1] was under 0.01 µM; in assay [2], over 0.1 µM.

On to `COCCOC[C@]12Cc3cnn(-c4ccc(F)cc4)c3C[C@@H]1CCN(S(=O)(=O)c1ccc(C(C)(C)C)cc1)C2`, for which the Ki in assay [1] and in assay [2] was under 0.01 µM throughout.

Take `COCCOC[C@]12Cc3cnn(-c4ccc(F)cc4)c3C[C@@H]1CCN(S(=O)(=O)c1ccccc1)C2`: the Ki was under 0.01 µM in assay [1] and 0.01 to 0.1 µM in assay [2].

Consider `COC[C@]12Cc3cnn(-c4ccc(F)cc4)c3C[C@@H]1CCN(S(=O)(=O)c1ccccc1)C2`, for which the Ki in assay [1] is 0.01 to 0.1 µM; in assay [2], over 0.1 µM.

For the compound `CC(C)(C)c1ccc(S(=O)(=O)N2CCC3=Cc4c(cnn4-c4ccc(F)cc4)C[C@]3(C(=O)NCc3ccccc3)C2)cc1`, the Ki is 0.01 to 0.1 µM in assay [1] and over 0.1 µM in assay [2].

Take `CC(C)(C)c1ccc(S(=O)(=O)N2CCC3=Cc4c(cnn4-c4ccc(F)cc4)C[C@]3(C(=O)N3CCOCC3)C2)cc1`: the results for the Ki in assay [1] and in assay [2] were 0.01 to 0.1 µM and over 0.1 µM, respectively.

With `CC(C)(C)c1ccc(S(=O)(=O)N2CCC3=Cc4c(cnn4-c4ccc(F)cc4)C[C@]3(C(=O)N3CCCCC3)C2)cc1`, the Ki in assay [1] is under 0.01 µM; in assay [2], over 0.1 µM.

`CC(C)(C)c1ccc(S(=O)(=O)N2CCC3=Cc4c(cnn4-c4ccc(F)cc4)C[C@]3(C(=O)N3CCCC3)C2)cc1`: the Ki in assay [1] was under 0.01 µM; in assay [2] it was 0.01 to 0.1 µM.

Take `CCNC(=O)[C@]12Cc3cnn(-c4ccc(F)cc4)c3C=C1CCN(S(=O)(=O)c1ccc(C(C)(C)C)cc1)C2`: the Ki in assay [1] is under 0.01 µM; in assay [2], over 0.1 µM.

With `CN(C)C(=O)[C@]12Cc3cnn(-c4ccc(F)cc4)c3C=C1CCN(S(=O)(=O)c1ccc(C(C)(C)C)cc1)C2`, the Ki in assay [1] was 0.01 to 0.1 µM; in assay [2], over 0.1 µM.

For the compound `CC(O)[C@]12Cc3cnn(-c4ccc(F)cc4)c3C=C1CCN(S(=O)(=O)c1ccc(C(C)(C)C)cc1)C2` (stereo partly drawn), the values for the Ki in assay [1] and in assay [2] were under 0.01 µM and 0.01 to 0.1 µM, respectively.

For `CCC(O)[C@]12Cc3cnn(-c4ccc(F)cc4)c3C=C1CCN(S(=O)(=O)c1ccc(C(C)(C)C)cc1)C2` (stereo partly drawn), the Ki was under 0.01 µM in assay [1] and 0.01 to 0.1 µM in assay [2].

On to `CC(C)(C)c1ccc(S(=O)(=O)N2CCC3=Cc4c(cnn4-c4ccc(F)cc4)C[C@]3(C(O)c3ccccc3)C2)cc1` (stereo partly drawn), for which the Ki in assay [1] was 0.01 to 0.1 µM; in assay [2], over 0.1 µM.

Regarding `CC(C)(C)c1ccc(S(=O)(=O)N2CCC3=Cc4c(cnn4-c4ccc(F)cc4)C[C@]3(C(=O)c3ccccc3)C2)cc1`, the Ki in assay [1] and in assay [2] was under 0.01 µM in each case.

On to `CCCCn1ncc2c1C=C1CCN(S(=O)(=O)c3ccc(C)cc3)C[C@@]1(C(=O)OC)C2`, for which the Ki in assay [1] and in assay [2] was over 0.1 µM throughout.

As for `COC(=O)C[C@]12Cc3cnn(-c4ccc(F)cc4)c3C=C1CCN(S(=O)(=O)c1ccc(C(C)(C)C)cc1)C2`, the Ki in assay [1] was under 0.01 µM; in assay [2] it was 0.01 to 0.1 µM.

On to `CC(C)(C)c1ccc(S(=O)(=O)N2CCC3=Cc4c(cnn4-c4ccc(F)cc4)C[C@]3(CCO)C2)cc1`, for which the Ki in assay [1] was under 0.01 µM; in assay [2], 0.01 to 0.1 µM.

On to `COCC[C@]12Cc3cnn(-c4ccc(F)cc4)c3C=C1CCN(S(=O)(=O)c1ccc(C(C)(C)C)cc1)C2`, for which the Ki in assay [1] and in assay [2] was under 0.01 µM in each case.

Turning to `CN(C)CC[C@]12Cc3cnn(-c4ccc(F)cc4)c3C=C1CCN(S(=O)(=O)c1ccc(C(C)(C)C)cc1)C2`, the Ki in assay [1] and in assay [2] was 0.01 to 0.1 µM in each case.

Consider `CC(C)(C)c1ccc(S(=O)(=O)N2CCC3=Cc4c(cnn4-c4ccc(F)cc4)C[C@]3(CCN3CCCC3)C2)cc1`, for which the Ki in assay [1] and in assay [2] was 0.01 to 0.1 µM each time.

Regarding `CC(C)(C)c1ccc(S(=O)(=O)N2CC[C@H]3Cc4c(cnn4-c4ccc(F)cc4)C[C@]3(CN3CCOCC3)C2)cc1`, the Ki in assay [1] is under 0.01 µM; in assay [2] it was 0.01 to 0.1 µM.

Consider `O=S(=O)(c1ccccc1)N1CCC2=Cc3c(cnn3-c3ccc(F)cc3)CC2(Cc2ccc(F)cc2)C1` (stereo not drawn), for which the Ki is under 0.01 µM in assay [1] and 0.01 to 0.1 µM in assay [2].

Turning to `Cc1ccc(S(=O)(=O)N2CCC3=Cc4c(cnn4-c4ccc(F)cc4)CC3(Cc3ccc(F)cc3)C2)cc1` (stereo not drawn), the Ki is under 0.01 µM in assay [1] and 0.01 to 0.1 µM in assay [2].

For `O=S(=O)(c1ccc(F)cc1)N1CCC2=Cc3c(cnn3-c3ccc(F)cc3)CC2(Cc2ccc(F)cc2)C1` (stereo not drawn), the figures for the Ki in assay [1] and in assay [2] were under 0.01 µM and 0.01 to 0.1 µM, respectively.

Turning to `CS(=O)(=O)N1CCC2=Cc3c(cnn3-c3ccc(F)cc3)CC2(Cc2ccc(F)cc2)C1` (stereo not drawn), the Ki in assay [1] was 0.01 to 0.1 µM; in assay [2], over 0.1 µM.

As for `CC(C)S(=O)(=O)N1CCC2=Cc3c(cnn3-c3ccc(F)cc3)CC2(Cc2ccccc2)C1` (stereo not drawn), the Ki in assay [1] and in assay [2] was over 0.1 µM each time.

As for `Cn1cnc(S(=O)(=O)N2CCC3=Cc4c(cnn4-c4ccc(F)cc4)CC3(Cc3ccc(F)cc3)C2)c1` (stereo not drawn), the Ki is under 0.01 µM in assay [1] and over 0.1 µM in assay [2].
